The source of these data is ChEMBL document CHEMBL1201862, “PubChem BioAssay data set” (2004).

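Tested at 5 concentrations; 48 h exposure; 96-well plates; endpoints linearly interpolated, else capped at highest concentration. At the GI50, growth is halved.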 Active and inactive are the calls of the source. Rule as the data show it: active = GI50 up to about 1.1 µM and inactive = higher.

Among the test systems are XF498; DMS-273; HOP-18; KM-20L2; LXFL 529; RXF 631; SNB-78; DLD-1.
Assay in all cases: growth of human tumour cells (NCI), 48 h

Consider `CC1=C2CCCC2C/C(=N/Nc2ccc([N+](=O)[O-])cc2[N+](=O)[O-])CC1` (configuration not stated), for which the GI50 with XF498, with DMS-273, in the assay on HOP-18, in the assay on KM-20L2, with LXFL 529 and in the assay on RXF 631 was > 100 µM (inactive) in each case.

As for `[N-]=[N+]=Nc1ccc(S(=O)(=O)Oc2cc(OS(=O)(=O)c3ccc(N=[N+]=[N-])cc3)cc(OS(=O)(=O)c3ccc(N=[N+]=[N-])cc3)c2)cc1`, the GI50 with SNB-78, in the assay on XF498, in the assay on DMS-273, in the assay on HOP-18, in the assay on DLD-1 and with KM-20L2 was > 100 µM (inactive) throughout. The GI50 in the assay on LXFL 529 and in the assay on RXF 631 was > 100 µM (inactive) throughout.

As for `CCN(CC)CCCN(c1cc(OC)cc2nccnc12)S(=O)(=O)c1ccc(C)cc1`, the GI50 with XF498, in the assay on DMS-273, with HOP-18, in the assay on DLD-1, in the assay with KM-20L2 and in the assay with LXFL 529 was > 100 µM (inactive) each time. The GI50 with RXF 631 was > 100 µM (inactive).

Take `C=C1CC2(CCS(=O)(=O)c3ccccc32)OC1=O` (configuration not stated): the GI50 with SNB-78 is 9.51 µM (inactive); with XF498 it was 13.2 µM (inactive); in the assay on DMS-273, 16.5 µM (inactive); in the assay on HOP-18, 3.63 µM (inactive); in the assay on DLD-1, 12.5 µM (inactive); in the assay with KM-20L2, 14.3 µM (inactive). For the same compound, the results for the GI50 in the assay with LXFL 529 and with RXF 631 were 4.4 µM (inactive) and 20.7 µM (inactive), respectively.

Turning to `CCOc1ccc(NC(=O)CC2C(=O)Nc3ccccc3S2(=O)=O)cc1` (configuration not stated), the GI50 with SNB-78 was 90.4 µM (inactive); in the assay with XF498, 29.8 µM (inactive); with HOP-18, > 100 µM (inactive); in the assay on DLD-1 it was > 100 µM (inactive); in the assay with KM-20L2, > 100 µM (inactive); in the assay on LXFL 529, > 100 µM (inactive). Also, the GI50 in the assay on RXF 631 was > 100 µM (inactive).

`Cc1nsc2cc(Cl)n(C)c(=O)c12`: the GI50 in the assay with SNB-78, in the assay on XF498, with DMS-273, with DLD-1, in the assay with KM-20L2 and with LXFL 529 was > 100 µM (inactive) each time. The GI50 in the assay with RXF 631 was > 100 µM (inactive).

As to `O=C1c2cccc3cccc(c23)C(=O)N1CCCN1CCN(CCCN2C(=O)c3cccc4cccc(c34)C2=O)CC1`, the GI50 in the assay on SNB-78, in the assay with XF498, in the assay with DMS-273, with HOP-18, in the assay on DLD-1 and in the assay on KM-20L2 was > 100 µM (inactive) in each case. Besides, the GI50 in the assay on LXFL 529 and with RXF 631 was > 100 µM (inactive) throughout.

For the compound `COCCOc1cc(C)cc(/C=C(C)/C=C/C2=C(C)CCCC2(C)C)n1`, the GI50 with SNB-78 was 81.3 µM (inactive); in the assay with XF498, 43.6 µM (inactive); in the assay on DMS-273, 48.5 µM (inactive); in the assay with HOP-18, > 100 µM (inactive); in the assay on DLD-1 it was > 100 µM (inactive); with LXFL 529 it was 45.8 µM (inactive). Also, the GI50 in the assay with RXF 631 was 59.8 µM (inactive).

With `O=C(Nc1ccccc1[N+](=O)[O-])c1ccccc1`, the GI50 in the assay on SNB-78 was > 100 µM (inactive); in the assay on XF498, > 100 µM (inactive); with DMS-273, > 100 µM (inactive); in the assay with HOP-18 it was > 100 µM (inactive); in the assay on DLD-1, 72.3 µM (inactive); in the assay with KM-20L2, > 100 µM (inactive). Also, the results for the GI50 with LXFL 529 and in the assay on RXF 631 were > 100 µM (inactive) and 64.1 µM (inactive), respectively.

`NNC(=O)C(=O)NN=C(C(Cl)(Cl)CO)C(Cl)(Cl)CO`: the GI50 with SNB-78 is 21.5 µM (inactive); with XF498, 16.6 µM (inactive); in the assay with DMS-273, 65.9 µM (inactive); with HOP-18, > 100 µM (inactive); with DLD-1 it was 22.6 µM (inactive); in the assay on KM-20L2 it was 44.5 µM (inactive). The GI50 was 28.2 µM (inactive) in the assay on LXFL 529 and 21.3 µM (inactive) in the assay with RXF 631.

Turning to `FC(F)(F)c1nc(-c2ccccc2)oc1Sc1nnc(Sc2oc(-c3ccccc3)nc2C(F)(F)F)s1`, the GI50 in the assay on SNB-78 was 34.1 µM (inactive); in the assay with XF498, 9.06 µM (inactive); in the assay on DMS-273 it was 46.8 µM (inactive); with HOP-18, > 100 µM (inactive); in the assay on DLD-1 it was 36.4 µM (inactive); in the assay with KM-20L2 it was > 100 µM (inactive). Besides, the results for the GI50 in the assay with LXFL 529 and in the assay with RXF 631 were 27.8 µM (inactive) and 36.9 µM (inactive), respectively.

With `CN1N=CSC12C(=O)N(c1ccccc1)C(=O)N2c1ccccc1` (configuration not stated), the GI50 with SNB-78 is > 100 µM (inactive); in the assay with XF498, > 100 µM (inactive); in the assay on DMS-273, > 100 µM (inactive); in the assay with HOP-18, < 0.01 µM (active); in the assay on DLD-1, > 100 µM (inactive); with KM-20L2, > 100 µM (inactive). For the same compound, the GI50 with LXFL 529 and in the assay with RXF 631 was > 100 µM (inactive) each time.

Turning to `COc1cc(/C=C/c2ccc(Br)cc2)cc(OC)c1OC`, the GI50 was 20.2 µM (inactive) in the assay with XF498; 4.91 µM (inactive) with DMS-273; 6.61 µM (inactive) in the assay with HOP-18; 6.93 µM (inactive) with DLD-1; 7.13 µM (inactive) with KM-20L2; 16.1 µM (inactive) with LXFL 529. Moreover, the GI50 in the assay with RXF 631 is 9.77 µM (inactive).
